Measured values taken from patent publication US8273337B2, “Hair binding peptides and peptide-based hair reagents for personal care” (Affinergy Inc., priority 2007, dated 2012).

Legend:
90% gray hair [1] = test: ELISA hair-binding activity of biotinylated peptides on hair bundles; parameters: species or system human; details: 20 μM biotinylated peptide in TBST and 1 mg/mL BSA, 1 hour at room temperature, 90% gray hair bundles, streptavidin-HRP detection; mean of at least three replicates
Excerpt: Enzyme-linked immunosorbent assay (ELISA) was used to evaluate the hair-binding affinity of the biopanning selected peptide candidates (Example 1; biotinylated peptides SEQ ID NOs: 25, 27, 29, 30, and 32). The identified peptides along with a positive control peptide Gray3 (given as SEQ ID NO: 34; previously reported in co-pending U.S. patent application Ser. No. 11/251,715 corresponding to U.S. Patent Application Publication No. 2006/0073111) were synthesized using standard solid […] synthesis method (U.S. Ser. No. 11/251/715).
The resulting absorbance values, reported as the mean of at least three replicates, and the standard error of the mean (SEM) are given in Table 3.

90% gray hair [2] = details: substrate 90% gray hair; peptide concentration giving 50% of the maximum ELISA signal; calculated from Scatchard plots
Description: (§1) The MB50 provides an indication of the strength of the binding interaction or affinity of the components of the complex.
as §1
The hair samples were assembled in bundles consisting of 100 hairs about 1 cm long which were bundled together using narrow tape at one end. […] Peptide binding buffer consisting of various concentrations of biotinylated peptide in TBST and 1 mg/mL BSA was added to the hair bundles and incubated for 1 hour at room temperature, followed by 6 TBST washes. […] The results were plotted as A450 versus the concentration of peptide using GraphPad Prism 4.0 (GraphPad Software, Inc., San Diego, Calif.).

Substance | Hair A405 nm (90% gray hair [1]) | MB50 (90% gray hair [2]) [nM]
SSNDSNVSWFHYYASGLTSSR-GSSG-SRKSSQKNPHHPKPPKKPTAR-GSSGK (biotin) [Aff15025] | 0.86 | 
Gray3: positive control hair-binding peptide previously reported in U.S. Patent Application Publication No. 2006/0073111 (HDHKNQKETHQRHAA; Hair-binding peptide) [reference compound] | 0.448 | 
SSEGASVASASDSVDSSYYSRKSSQKNPHHPKPPKKPTAR-GSSGK (biotin) [Aff15023] | 0.66 | 
VRPNLHRKAKAKPDHKQSENRKVPFYSH-GSSGK (biotin) [Aff15012] | 0.873 | 24
EGASVASASDSVDSSYYSR-GSSGK (biotin) [Aff15017] | 0.184 | 
SRKSSQKNPHHPKPPKKPTAR-GSSGK (biotin) [Aff15014] | 0.871 | 33
